Reference: the NIST ThermoML archive (doi:10.1021/je8001267)

Experiment: wn = mass fraction of the nth substance listed
Details: Liquid

Cl.N [ammonium chloride (NH4Cl)] + N
mass density [kg/m3]
Details	303.15 K	313.15 K	323.15 K	333.15 K	343.15 K	353.15 K	363.15 K	373.15 K
10000 kPa, w1 = 0.1133	668.2	655.5	642.7	628.8	613.4	597.6	581.2	568.8
10000 kPa, w1 = 0.2224	729.3	716	707.1	694.9	682.5	669.2	654.5	644.4
10000 kPa, w1 = 0.3134	787.8	778.1	767.7	756.3	745.7	735.4	724.1	713.8
10000 kPa, w1 = 0.4285	833	825.9	817.4	809.5	801.9	793.4	784.2	776.9
10000 kPa, w1 = 0.5068	873.3	867.9	860	853.2	846	838	830.5	823.8
15000 kPa, w1 = 0.1133	673.3	660.5	648.4	634.7	620.3	605.7	588.8	577.2
15000 kPa, w1 = 0.2224	733.1	720.5	711.9	699.8	688.1	675.5	661.6	651.7
15000 kPa, w1 = 0.3134	791.5	783.6	772.6	761.1	751.6	741.5	731.7	721.3
15000 kPa, w1 = 0.4285	836.1	828.4	820.9	812.4	805.2	796.6	789.2	781.3
15000 kPa, w1 = 0.5068	877.7	871.7	864.7	857.9	850.6	844	837	830.3
20000 kPa, w1 = 0.1133	677.8	665.3	654.2	640.8	627.1	612.9	596.4	585.5
20000 kPa, w1 = 0.2224	736.6	725.1	715.8	704.3	692.5	680.2	667.3	657.3
20000 kPa, w1 = 0.3134	795.8	786.8	776.3	765.1	755	746.5	736.8	726.2
20000 kPa, w1 = 0.4285	838.2	831	823.4	814.4	807.6	799.5	792	784.1
20000 kPa, w1 = 0.5068	880.4	874.4	867.9	860.5	854.2	847.5	840.5	834
25000 kPa, w1 = 0.1133	682.2	670.1	658.7	646.7	633.1	619.7	603.4	593
25000 kPa, w1 = 0.2224	740.1	729.5	719.7	708.7	696.9	684.7	672.2	662.3
25000 kPa, w1 = 0.3134	798.5	789.7	779.4	768.2	758.3	750.3	741.5	730.7
25000 kPa, w1 = 0.4285	840.8	833.5	825.9	817.9	810	801.9	794.3	786.5
25000 kPa, w1 = 0.5068	883.2	876.6	870.6	863.1	857.4	850.1	843.5	837
30000 kPa, w1 = 0.1133	686.7	674.6	663.4	652.3	638.6	626.1	610.6	600.3
30000 kPa, w1 = 0.2224	743.8	734.2	723.4	712.9	701.2	689.2	677.3	667.2
30000 kPa, w1 = 0.3134	801.6	792.5	782.4	770.8	761.1	754	745.7	734.6
30000 kPa, w1 = 0.4285	842.9	835.6	827.4	820.4	812	804.2	796.4	788.7
30000 kPa, w1 = 0.5068	885.4	878.8	872.8	865.3	859.7	852.7	846	839.6
